Values quoted from earlier work in patent US20130315934A1, “Methods and Compositions for Assessing and Treating Cancer” (Yale University, priority 2010, published 2013).

Tests used:
PAK-4 = PAK-4 (Homo sapiens, UniProt O96013); conditions: PAK family members
[1] = system: YULOVY melanoma cells possessing the S522I variant; conditions: cell culture, YULOVY melanoma cells (ACK1 S522I variant)
purified ACK1 = purified ACK1 (Homo sapiens, UniProt Q07912); conditions: in vitro, purified enzyme
[2] = system: YUHEF melanoma cells harboring ACK1-S212L; conditions: cell culture

Sequence of PAK-4 (O96013 whole entry): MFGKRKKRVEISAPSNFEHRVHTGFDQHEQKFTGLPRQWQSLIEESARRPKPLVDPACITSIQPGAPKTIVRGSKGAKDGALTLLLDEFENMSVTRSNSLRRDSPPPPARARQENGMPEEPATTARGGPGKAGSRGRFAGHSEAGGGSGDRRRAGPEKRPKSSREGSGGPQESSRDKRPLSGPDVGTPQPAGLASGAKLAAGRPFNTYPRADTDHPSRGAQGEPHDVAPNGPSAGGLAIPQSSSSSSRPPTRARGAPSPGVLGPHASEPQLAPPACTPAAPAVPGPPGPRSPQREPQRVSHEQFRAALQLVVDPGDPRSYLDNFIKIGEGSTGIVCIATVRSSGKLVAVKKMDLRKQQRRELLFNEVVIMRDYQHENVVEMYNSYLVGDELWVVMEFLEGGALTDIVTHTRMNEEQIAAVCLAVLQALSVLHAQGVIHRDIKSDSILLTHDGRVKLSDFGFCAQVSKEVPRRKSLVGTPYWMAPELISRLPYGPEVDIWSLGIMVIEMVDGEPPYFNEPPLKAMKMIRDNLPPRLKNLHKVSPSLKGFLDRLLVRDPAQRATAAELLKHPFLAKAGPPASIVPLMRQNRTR
Sequence of purified ACK1 (Q07912 whole entry): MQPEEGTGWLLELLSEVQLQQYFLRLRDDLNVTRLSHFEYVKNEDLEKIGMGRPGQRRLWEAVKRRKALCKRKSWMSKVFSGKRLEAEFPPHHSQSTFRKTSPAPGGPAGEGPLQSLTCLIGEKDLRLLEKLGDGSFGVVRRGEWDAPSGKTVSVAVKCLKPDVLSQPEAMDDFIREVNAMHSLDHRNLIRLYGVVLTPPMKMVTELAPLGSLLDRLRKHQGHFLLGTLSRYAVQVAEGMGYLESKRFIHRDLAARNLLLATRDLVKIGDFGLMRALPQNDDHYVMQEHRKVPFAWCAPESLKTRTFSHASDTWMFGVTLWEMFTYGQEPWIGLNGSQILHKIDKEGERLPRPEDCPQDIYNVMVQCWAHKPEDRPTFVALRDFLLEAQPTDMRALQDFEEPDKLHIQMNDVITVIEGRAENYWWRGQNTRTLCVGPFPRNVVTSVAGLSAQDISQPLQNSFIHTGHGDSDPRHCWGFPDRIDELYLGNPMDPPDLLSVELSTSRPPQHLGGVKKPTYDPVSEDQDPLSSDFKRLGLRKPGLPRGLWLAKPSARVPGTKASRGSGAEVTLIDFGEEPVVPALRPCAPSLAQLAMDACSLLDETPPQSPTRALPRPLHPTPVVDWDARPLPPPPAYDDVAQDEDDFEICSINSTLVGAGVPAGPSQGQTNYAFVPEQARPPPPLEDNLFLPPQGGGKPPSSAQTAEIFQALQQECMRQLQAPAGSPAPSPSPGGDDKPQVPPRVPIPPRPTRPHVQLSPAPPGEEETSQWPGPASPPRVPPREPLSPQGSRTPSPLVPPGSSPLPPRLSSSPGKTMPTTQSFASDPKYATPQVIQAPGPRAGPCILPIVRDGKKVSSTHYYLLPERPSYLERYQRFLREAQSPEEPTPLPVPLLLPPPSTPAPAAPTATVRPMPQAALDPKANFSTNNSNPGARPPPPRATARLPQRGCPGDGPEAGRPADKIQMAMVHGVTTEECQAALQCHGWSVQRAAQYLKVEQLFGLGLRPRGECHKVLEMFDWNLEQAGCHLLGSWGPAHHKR

Structure (SMILES)	PAK family selectivity of inhibition (PAK-4)	inhibition of proliferation [1]	inhibition of purified ACK1 (purified ACK1)	inhibition of proliferation [2]
Cc1nc(Nc2[nH]nc3c2CN(C(=O)N[C@H](CN(C)C)c2ccccc2)C3(C)C)c2sccc2n1 [PF-3758309]	inhibit only PAK-4	–	–	–
CCCS(=O)(=O)Nc1ccc(F)c(C(=O)c2c[nH]c3ncc(-c4ccc(Cl)cc4)cc23)c1F [PLX4032]	–	did not inhibit the proliferation	highly effective in vitro inhibitor	did not inhibit the proliferation
